Test results taken from ChEMBL document CHEMBL3885861, “Open TG-GATES”.

Organism: Rattus norvegicus
Assay: Open TG-GATES - Regimen: Daily Repeat
Format: toxicity, organism-based, Sprague-Dawley
Parameters: regimen Daily Repeat, gender Male, age 6 weeks
Settings: in vivo, po, 0 mg/kg, route gavage, dose level Control; for APTT / Bas / Eos / Fbg / Hb / Ht / Lym / MCH / MCHC / MCV / Mono / Neu / PT / Plat / RBC / Ret / WBC: tissue Blood; for KIDNEY_L / KIDNEY_R / KIDNEY_TOTAL: tissue Kidney; for LIVER: tissue Liver; for A/G / ALP / ALT / AST / BUN / CRE / Ca / Cl / DBIL / GLC / IP / K / LDH / Na / PL / RALB / TBIL / TC / TG / TP / gamma-GTP: tissue Plasma

CN(C)CCN(Cc1cccs1)c1ccccn1
TERMINAL_BW (72 h, time 3 day): 217.2 g
APTT (72 h, time 3 day): 22.4 s
Bas (72 h, time 3 day): 0%
Eos (72 h, time 3 day): 0.6%
Fbg (72 h, time 3 day): 290.8 mg/dL
Hb (72 h, time 3 day): 12.9 g/dL
Ht (72 h, time 3 day): 38.8%
Lym (72 h, time 3 day): 80.4%
MCH (72 h, time 3 day): 21.3 pg
MCHC (72 h, time 3 day): 33.4%
MCV (72 h, time 3 day): 63.8 fL
Mono (72 h, time 3 day): 1.8%
Neu (72 h, time 3 day): 16.4%
PT (72 h, time 3 day): 15.9 s
Plat (72 h, time 3 day): 125.8 x10_4/uL
RBC (72 h, time 3 day): 609 x10_4/ul
Ret (72 h, time 3 day): 6.8%
WBC (72 h, time 3 day): 107.9 x10_2/uL
KIDNEY_L (72 h, time 3 day): 1 g
KIDNEY_R (72 h, time 3 day): 1 g
KIDNEY_TOTAL (72 h, time 3 day): 2 g
LIVER (72 h, time 3 day): 10.2 g
A/G (72 h, time 3 day): 1.2
ALP (72 h, time 3 day): 1533 IU/L
ALT (72 h, time 3 day): 39.2 IU/L
AST (72 h, time 3 day): 68 IU/L
BUN (72 h, time 3 day): 16.8 mg/dL
CRE (72 h, time 3 day): 0.2 mg/dL
Ca (72 h, time 3 day): 10.9 mg/dL
Cl (72 h, time 3 day): 106.4 meq/L
DBIL (72 h, time 3 day): 0.002 mg/dL
GLC (72 h, time 3 day): 187.2 mg/dL
IP (72 h, time 3 day): 7.1 mg/dL
K (72 h, time 3 day): 4.4 meq/L
LDH (72 h, time 3 day): 210.8 IU/L
Na (72 h, time 3 day): 142.6 meq/L
PL (72 h, time 3 day): 140.6 mg/dL
RALB (72 h, time 3 day): 3 g/dL
TBIL (72 h, time 3 day): 0.012 mg/dL
TC (72 h, time 3 day): 75.4 mg/dL
TG (72 h, time 3 day): 86.8 mg/dL
TP (72 h, time 3 day): 5.6 g/dL
gamma-GTP (72 h, time 3 day): 1 IU/L
TERMINAL_BW ([…], time 7 day): 246.2 g
TERMINAL_BW ([…], time 14 day): 277 g
TERMINAL_BW ([…], time 28 day): 347.3 g
APTT ([…], time 7 day): 21.1 s
Bas ([…], time 7 day): 0%
Eos ([…], time 7 day): 0.6%
Fbg ([…], time 7 day): 320.8 mg/dL
Hb ([…], time 7 day): 13.4 g/dL
Ht ([…], time 7 day): 39.8%
Lym ([…], time 7 day): 80.2%
MCH ([…], time 7 day): 20.8 pg
MCHC ([…], time 7 day): 33.6%
MCV ([…], time 7 day): 61.8 fL
Mono ([…], time 7 day): 2%
Neu ([…], time 7 day): 16.4%
PT ([…], time 7 day): 17 s
Plat ([…], time 7 day): 131 x10_4/uL
RBC ([…], time 7 day): 644.2 x10_4/ul
Ret ([…], time 7 day): 5.8%
WBC ([…], time 7 day): 122.7 x10_2/uL
APTT ([…], time 14 day): 21.6 s
Bas ([…], time 14 day): 0%
Eos ([…], time 14 day): 1%
Fbg ([…], time 14 day): 303.8 mg/dL
Hb ([…], time 14 day): 14 g/dL
Ht ([…], time 14 day): 40.9%
Lym ([…], time 14 day): 81.8%
MCH ([…], time 14 day): 20.3 pg
MCHC ([…], time 14 day): 34.2%
MCV ([…], time 14 day): 59.4 fL
Mono ([…], time 14 day): 2%
Neu ([…], time 14 day): 14.4%
PT ([…], time 14 day): 16.7 s
Plat ([…], time 14 day): 112.6 x10_4/uL
RBC ([…], time 14 day): 689.8 x10_4/ul
Ret ([…], time 14 day): 4.2%
WBC ([…], time 14 day): 133.3 x10_2/uL
APTT ([…], time 28 day): 23.4 s
Bas ([…], time 28 day): 0%
Eos ([…], time 28 day): 1%
Fbg ([…], time 28 day): 288.2 mg/dL
Hb ([…], time 28 day): 14.7 g/dL
Ht ([…], time 28 day): 42.7%
Lym ([…], time 28 day): 79%
MCH ([…], time 28 day): 19.5 pg
MCHC ([…], time 28 day): 34.3%
MCV ([…], time 28 day): 56.9 fL
Mono ([…], time 28 day): 1.6%
Neu ([…], time 28 day): 17.4%
PT ([…], time 28 day): 16.1 s
Plat ([…], time 28 day): 97.6 x10_4/uL
RBC ([…], time 28 day): 751.4 x10_4/ul
Ret ([…], time 28 day): 2.9%
WBC ([…], time 28 day): 92 x10_2/uL
KIDNEY_L ([…], time 7 day): 1 g
KIDNEY_R ([…], time 7 day): 1 g
KIDNEY_TOTAL ([…], time 7 day): 2.1 g
KIDNEY_L ([…], time 14 day): 1.1 g
KIDNEY_R ([…], time 14 day): 1.1 g
KIDNEY_TOTAL ([…], time 14 day): 2.3 g
KIDNEY_L ([…], time 28 day): 1.3 g
KIDNEY_R ([…], time 28 day): 1.3 g
KIDNEY_TOTAL ([…], time 28 day): 2.5 g
LIVER ([…], time 7 day): 10.9 g
LIVER ([…], time 14 day): 11.5 g
LIVER ([…], time 28 day): 13.4 g
A/G ([…], time 7 day): 1.2
ALP ([…], time 7 day): 1666.2 IU/L
ALT ([…], time 7 day): 40 IU/L
AST ([…], time 7 day): 68 IU/L
BUN ([…], time 7 day): 17.8 mg/dL
CRE ([…], time 7 day): 0.2 mg/dL
Ca ([…], time 7 day): 10.6 mg/dL
Cl ([…], time 7 day): 107.4 meq/L
DBIL ([…], time 7 day): 0 mg/dL
GLC ([…], time 7 day): 182.4 mg/dL
IP ([…], time 7 day): 7.3 mg/dL
K ([…], time 7 day): 4.4 meq/L
LDH ([…], time 7 day): 164.4 IU/L
Na ([…], time 7 day): 144.4 meq/L
PL ([…], time 7 day): 146.6 mg/dL
RALB ([…], time 7 day): 3 g/dL
TBIL ([…], time 7 day): 0.01 mg/dL
TC ([…], time 7 day): 72.6 mg/dL
TG ([…], time 7 day): 125.8 mg/dL
TP ([…], time 7 day): 5.6 g/dL
gamma-GTP ([…], time 7 day): 1.8 IU/L
A/G ([…], time 14 day): 1.1
ALP ([…], time 14 day): 1834 IU/L
ALT ([…], time 14 day): 39.6 IU/L
AST ([…], time 14 day): 68 IU/L
BUN ([…], time 14 day): 19 mg/dL
CRE ([…], time 14 day): 0.2 mg/dL
Ca ([…], time 14 day): 10.1 mg/dL
Cl ([…], time 14 day): 107.4 meq/L
DBIL ([…], time 14 day): 0.002 mg/dL
GLC ([…], time 14 day): 194.8 mg/dL
IP ([…], time 14 day): 6.7 mg/dL
K ([…], time 14 day): 4.1 meq/L
LDH ([…], time 14 day): 160.2 IU/L
Na ([…], time 14 day): 142.4 meq/L
PL ([…], time 14 day): 138 mg/dL
RALB ([…], time 14 day): 3 g/dL
TBIL ([…], time 14 day): 0.008 mg/dL
TC ([…], time 14 day): 63.8 mg/dL
TG ([…], time 14 day): 128 mg/dL
TP ([…], time 14 day): 5.5 g/dL
gamma-GTP ([…], time 14 day): 1.2 IU/L
A/G ([…], time 28 day): 1.2
ALP ([…], time 28 day): 1175.4 IU/L
ALT ([…], time 28 day): 42.6 IU/L
AST ([…], time 28 day): 66.4 IU/L
BUN ([…], time 28 day): 18.6 mg/dL
CRE ([…], time 28 day): 0.2 mg/dL
Ca ([…], time 28 day): 10.2 mg/dL
Cl ([…], time 28 day): 107.8 meq/L
DBIL ([…], time 28 day): 0.004 mg/dL
GLC ([…], time 28 day): 183.6 mg/dL
IP ([…], time 28 day): 6 mg/dL
K ([…], time 28 day): 4.1 meq/L
LDH ([…], time 28 day): 156 IU/L
Na ([…], time 28 day): 143.2 meq/L
PL ([…], time 28 day): 131.8 mg/dL
RALB ([…], time 28 day): 3.1 g/dL
TBIL ([…], time 28 day): 0.012 mg/dL
TC ([…], time 28 day): 67 mg/dL
TG ([…], time 28 day): 103 mg/dL
TP ([…], time 28 day): 5.7 g/dL
gamma-GTP ([…], time 28 day): 1.8 IU/L
